Consider one compound from PMC4760952, “Structural basis of interprotein electron transfer in bacterial sulfite oxidation” (eLife, 2015).

The target of the assay is T1, SorT (Sinorhizobium meliloti, UniProt Q92M24).
T1 construct: gene SMc04049; recombinant periplasmic SorT, purified as in Low et al. 2011; homodimer; 33 N-terminal residues not seen in the complex crystal
T1 sequence (Q92M24 32-399): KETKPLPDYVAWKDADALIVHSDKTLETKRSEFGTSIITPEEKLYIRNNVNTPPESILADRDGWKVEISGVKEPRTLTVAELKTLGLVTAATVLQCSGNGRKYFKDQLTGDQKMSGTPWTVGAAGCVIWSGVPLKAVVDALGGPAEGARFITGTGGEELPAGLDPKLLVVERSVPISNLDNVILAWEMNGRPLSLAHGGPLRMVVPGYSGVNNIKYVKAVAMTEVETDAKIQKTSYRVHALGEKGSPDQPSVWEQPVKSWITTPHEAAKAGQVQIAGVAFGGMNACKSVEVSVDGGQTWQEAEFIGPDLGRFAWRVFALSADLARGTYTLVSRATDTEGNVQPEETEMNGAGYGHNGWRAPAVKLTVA
Kind of assay: sulfite dehydrogenase assay, SorU reduction at […] nm. Format: biochemical. As to conditions: electron acceptor SorU.

As for `O=S(O)O` [sulfite], the “sulfite dehydrogenase assay, SorU reduction at 550 nm” value is “Sulfite dehydrogenase enzyme assays were carried out as described previously”.
